Experimental data taken from US12534472B2, “Morphic forms of trilaciclib and methods of manufacture thereof” (Pharmacosmos Holding A/S, priority 2020, dated 2026).
“Also recorded” adds a separate entry of the source.

Legend:
Format in all cases: physicochemical
[1] = Thermodynamic solubility in water at pH 4.2
Method: Thermodynamic solubility was carried out for Pattern 1, Pattern 2/6 mixture, Pattern 3, amorphous di-HCl salts and Pattern 7 in water at pH 4.2. All samples were prepared at 30 mg/mL. Initial observations were made. The samples were agitated at ambient temperature for ca. 24 hours. The samples were collected and observations made. Observed solids were isolated via centrifugation. The mother liquor from the filtered sample was analyzed by HPLC. The pH 4.3 solution was prepared by diluting glacial acetic acid (11.6 mL) to 100 mL in deionized water, then adding sodium acetate (1.07 g) and acetic acid solution (5.9 mL) preparing up to 500 mL with deionized water; then the pH was adjusted to 4.2. The above technique was used to generate the images in FIG. 60.

[2] = Dynamic Vapor Sorption (DVS)
Method: Approximately, 10-20 mg of sample was placed into a mesh vapor sorption balance pan and loaded into a DVS Intrinsic dynamic vapor sorption balance by Surface Measurement Systems. The sample was subjected to a ramping profile from 40-90% relative humidity (RH) at 10% increments, maintaining the sample at each step until a stable weight had been achieved (dm/dt 0.004%, minimum step length 30 minutes, maximum step length 500 minutes) at 25° C. After completion of the sorption cycle, the sample was dried using the same procedure to 0% RH and then a second sorption cycle back to 40% RH. Two cycles were performed. The weight change during the sorption/desorption cycles were plotted, allowing for the hygroscopic nature of the sample to be determined. XRPD analysis was then carried out on any solid retained. The above technique was used to generate the images in FIG. 5, FIG. 6, FIG. 47 and FIG. 48.

[3] = Competitive slurry experiments
Method: Competitive slurry experiments were carried out using ca. 10 mg of Pattern 1, Pattern 2/6 mixture and Pattern 3 were weighed out and added to a 1.5 mL glass vial. Samples were prepared using 100 μL aliquots of solvent until a mobile slurry was formed. Samples were stirred at ambient temperature for 48 hours. A second set of samples were stirred at 60° C. for 48 hours. All samples were collected, and the solids were isolated and analyzed by XRPD. The above technique was used to generate the images in FIG. 50, FIG. 51, and FIG. 55 through FIG. 59.

[4] = Gravimetric Vapor Sorption (GVS); settings: 25° C.
Method: Approximately 10-20 mg of sample was placed into a mesh vapor sorption balance pan and loaded into an IGASorp Moisture Sorption Analyzer balance by Hiden Analytical. The sample was subjected to a ramping profile from 40-90% relative humidity (RH) at 10% increments, maintaining the sample at each step until a stable weight had been achieved (98% step completion, minimum step length 30 minutes, maximum step length 60 minutes) at 25° C. After completion of the sorption cycle, the sample was dried using the same procedure to 0% RH, and finally taken back to the starting point of 40% RH. Three cycles were performed. The weight change during the sorption/desorption cycles were plotted, allowing for the hygroscopic nature of the sample to be determined. The above technique was used to generate the images in FIG. 40 and FIG. 41.

Observations at T = 24 hours ([1]; 30 mg/mL in water at pH 4.2, agitated at ambient temperature ca. 24 hours): Yellow solution
Observations at T = 0 hours ([1]; 30 mg/mL in water at pH 4.2, ambient temperature, T = 0 hours): Yellow slurry
moisture adsorbed (DVS) ([2]; at 40% RH): 3.00 wt %
moisture adsorbed (DVS) ([2]; at 90% RH): 4.00 wt %
mass increase by DVS ([2]; between 0% and 90% RH): 4%
stability compared to other morphic forms [3]: superior stability
Change in Mass (%)-ref Desorption ([4]; Cycle 1, desorption, target RH 0%): 0.180%
Change in Mass (%)-ref Desorption ([4]; Cycle 1, desorption, target RH 10%): 2.320%
Change in Mass (%)-ref Desorption ([4]; Cycle 1, desorption, target RH 20%): 2.820%
Change in Mass (%)-ref Desorption ([4]; Cycle 1, desorption, target RH 30%): 3.110%
Change in Mass (%)-ref Desorption ([4]; Cycle 1, desorption, target RH 40%): 3.340%
Change in Mass (%)-ref Desorption ([4]; Cycle 1, desorption, target RH 50%): 3.580%
Change in Mass (%)-ref Desorption ([4]; Cycle 1, desorption, target RH 60%): 3.730%
Change in Mass (%)-ref Desorption ([4]; Cycle 1, desorption, target RH 70%): 3.820%
Change in Mass (%)-ref Desorption ([4]; Cycle 1, desorption, target RH 80%): 3.970%
Change in Mass (%)-ref Desorption ([4]; Cycle 1, desorption, target RH 90%): 4.160%
Change in Mass (%)-ref Sorption ([4]; Cycle 1, sorption, target RH 40%): 3.420%
Change in Mass (%)-ref Sorption ([4]; Cycle 1, sorption, target RH 50%): 3.560%
Change in Mass (%)-ref Sorption ([4]; Cycle 1, sorption, target RH 60%): 3.720%
Change in Mass (%)-ref Sorption ([4]; Cycle 1, sorption, target RH 70%): 3.800%
Change in Mass (%)-ref Sorption ([4]; Cycle 1, sorption, target RH 80%): 3.920%
Change in Mass (%)-ref Sorption ([4]; Cycle 1, sorption, target RH 90%): 4.160%
Change in Mass (%)-ref Desorption ([4]; Cycle 2, desorption, target RH 0%): 0.000%
Change in Mass (%)-ref Desorption ([4]; Cycle 2, desorption, target RH 10%): 2.240%
Change in Mass (%)-ref Desorption ([4]; Cycle 2, desorption, target RH 20%): 2.680%
Change in Mass (%)-ref Desorption ([4]; Cycle 2, desorption, target RH 30%): 3.020%
Change in Mass (%)-ref Desorption ([4]; Cycle 2, desorption, target RH 40%): 3.260%
Change in Mass (%)-ref Desorption ([4]; Cycle 2, desorption, target RH 50%): 3.500%
Change in Mass (%)-ref Desorption ([4]; Cycle 2, desorption, target RH 60%): 3.670%
Change in Mass (%)-ref Desorption ([4]; Cycle 2, desorption, target RH 70%): 3.780%
Change in Mass (%)-ref Desorption ([4]; Cycle 2, desorption, target RH 80%): 3.890%
Change in Mass (%)-ref Desorption ([4]; Cycle 2, desorption, target RH 90%): 4.080%
Change in Mass (%)-ref Sorption ([4]; Cycle 2, sorption, target RH 0%): 0.180%
Change in Mass (%)-ref Sorption ([4]; Cycle 2, sorption, target RH 10%): 2.300%
Change in Mass (%)-ref Sorption ([4]; Cycle 2, sorption, target RH 20%): 2.770%
Change in Mass (%)-ref Sorption ([4]; Cycle 2, sorption, target RH 30%): 3.030%
Change in Mass (%)-ref Sorption ([4]; Cycle 2, sorption, target RH 40%): 3.290%
Change in Mass (%)-ref Sorption ([4]; Cycle 2, sorption, target RH 50%): 3.470%
Change in Mass (%)-ref Sorption ([4]; Cycle 2, sorption, target RH 60%): 3.660%
Change in Mass (%)-ref Sorption ([4]; Cycle 2, sorption, target RH 70%): 3.780%
Change in Mass (%)-ref Sorption ([4]; Cycle 2, sorption, target RH 80%): 3.900%
Change in Mass (%)-ref Sorption ([4]; Cycle 2, sorption, target RH 90%): 4.080%
Change in Mass (%)-ref Sorption ([4]; Cycle 3, sorption, target RH 0%): 0.000%
Change in Mass (%)-ref Sorption ([4]; Cycle 3, sorption, target RH 10%): 2.250%
Change in Mass (%)-ref Sorption ([4]; Cycle 3, sorption, target RH 20%): 2.740%
Change in Mass (%)-ref Sorption ([4]; Cycle 3, sorption, target RH 30%): 3.020%
Change in Mass (%)-ref Sorption ([4]; Cycle 3, sorption, target RH 40%): 3.220%
Compound: CN1CCN(c2ccc(Nc3ncc4cc5n(c4n3)C3(CCCCC3)CNC5=O)nc2)CC1 [Pattern 1, 2′-((5-(4-methylpiperazin-1-yl)pyridin-2-yl)amino)-7′,8′-dihydro-6′H-spiro[cyclohexane-1,9′-pyrazino[1′,2′:1,5]pyrrolo[2,3-d]pyrimidin]-6′-one]
XRPD analysis post-DVS (form stability) ([2]; dried sample at the conclusion of the DVS experiment): confirmed Pattern 1; also recorded: no change
